From PubChem BioAssay AID220 (DTP/NCI, 2004)
Values joined by “and” are separate entries in the source; they are usually repeats but may differ in a detail not shown here. Equal values may be shown once. Inconclusive results are not listed.

Tested on: CD8F1 mice, subcutaneous mammary adenocarcinoma, T/C%
Assay: NCI In Vivo Anticancer Drug Screen. Data for tumor model Mammary Adenocarcinoma CD8F1 (subcutaneous) in CD8F1
Settings: higher = larger tumour
Method in brief: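 Antitumor activity is assessed in transplantable-tumor mice by comparing the treated group with a vehicle-treated control group. Survival or tumor size serves as the measure, reported as T divided by C.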

[1] = endpoint: median tumor weight (est.), dose: 25.0 mg/kg/injection, schedule: Q07DX005 (ip), vehicle: saline
[2] = endpoint: median tumor weight (est.), dose: 50.0 mg/kg/injection, schedule: Q07DX005 (ip), vehicle: saline
[3] = endpoint: median tumor weight (est.), dose: 100.0 mg/kg/injection, schedule: Q07DX005 (ip), vehicle: saline
[4] = endpoint: median tumor weight (est.), dose: 200.0 mg/kg/injection, schedule: Q07DX005 (ip), vehicle: saline
[5] = endpoint: median tumor weight (est.), dose: 400.0 mg/kg/injection, schedule: Q07DX005 (ip), vehicle: saline
[6] = endpoint: median tumor weight (est.), dose: 800.0 mg/kg/injection, schedule: Q07DX005 (ip), vehicle: saline
[7] = endpoint: median tumor weight (est.), dose: 12.5 mg/kg/injection, schedule: Q07DX005 (ip), vehicle: saline
[8] = endpoint: median tumor weight change, dose: 62.5 mg/kg/injection, schedule: Q01DX001 (ip), vehicle: saline with Tween-80
[9] = endpoint: median tumor weight change, dose: 125.0 mg/kg/injection, schedule: Q01DX001 (ip), vehicle: saline with Tween-80
[10] = endpoint: median tumor weight change, dose: 250.0 mg/kg/injection, schedule: Q01DX001 (ip), vehicle: saline with Tween-80
[11] = endpoint: median tumor weight change, dose: 1000.0 mg/kg/injection, schedule: Q01DX001 (ip), vehicle: saline with Tween-80
[12] = endpoint: median tumor weight change, dose: 500.0 mg/kg/injection, schedule: Q01DX001 (ip), vehicle: saline with Tween-80
[13] = endpoint: median tumor weight (est.), dose: 10.0 mg/kg/injection, schedule: Q07DX005 (ip), vehicle: Klucel (hydroxypropylcellulose) (HPC)
[14] = endpoint: median tumor weight (est.), dose: 20.0 mg/kg/injection, schedule: Q07DX005 (ip), vehicle: Klucel (hydroxypropylcellulose) (HPC)

C=CCc1cn(C2CC(O)C(CO)O2)c(=O)[nH]c1=O (configuration not stated)
T/C [1]: 58 % of control | T/C [2]: 79 % of control | T/C [3]: 86 % of control | T/C [4]: 248 % of control | T/C [5]: 75 % of control | T/C [6]: 79 % of control

CC(=O)CC(=O)CCC(=O)O
T/C (endpoint: median tumor weight change, dose: 125.0 mg/kg/injection, schedule: Q01DX001 (ip), vehicle: saline): 62 % of control | T/C (endpoint: median tumor weight change, dose: 250.0 mg/kg/injection, schedule: Q01DX001 (ip), vehicle: saline): 65 % of control

C[N+](C)(C)c1ncnc2c1ncn2C1CCCO1 (configuration not stated)
T/C [7]: 85 % of control | T/C [1]: 89 % of control | T/C [2]: 87 % of control | T/C [3]: 92 % of control

CCCCOCN(COCCCC)C(C)Cc1ccccc1 (configuration not stated)
T/C [8]: 100 % of control | T/C [9]: 85 % of control | T/C [10]: 110 % of control | T/C [11]: 80 % of control

CC(C)[NH-].CC(C)[NH-].[Cl][Pt+2][Cl]
T/C (endpoint: median tumor weight (est.), dose: 3.12 mg/kg/injection, schedule: Q07DX005 (ip), vehicle: dextrose): 106 % of control | T/C (endpoint: median tumor weight (est.), dose: 6.25 mg/kg/injection, schedule: Q07DX005 (ip), vehicle: dextrose): 80 % of control | T/C (endpoint: median tumor weight (est.), dose: 12.5 mg/kg/injection, schedule: Q07DX005 (ip), vehicle: dextrose): 42 % of control | T/C (endpoint: median tumor weight (est.), dose: 25.0 mg/kg/injection, schedule: Q07DX005 (ip), vehicle: dextrose): 76 % of control | T/C (endpoint: median tumor weight (est.), dose: 50.0 mg/kg/injection, schedule: Q07DX005 (ip), vehicle: dextrose): 27 % of control | T/C (endpoint: median tumor weight (est.), dose: 100.0 mg/kg/injection, schedule: Q07DX005 (ip), vehicle: dextrose): 42 % of control

CCOC(=O)c1cn(C)c2c1C(O)=C(C(=O)OC)CC(=O)N2
T/C [9]: 79 % of control | T/C [10]: 97 % of control | T/C [12]: 83 % of control | T/C [11]: 95 % of control

C=C1C(=O)OCC2C(C(=O)O)=CC3C(C)C(C)=CC123 (configuration not stated)
T/C [13]: 101 % of control | T/C [14]: 95 % of control and 105 % of control | T/C (endpoint: median tumor weight (est.), dose: 40.0 mg/kg/injection, schedule: Q07DX005 (ip), vehicle: Klucel (hydroxypropylcellulose) (HPC)): 100 % of control and 114 % of control | T/C (endpoint: median tumor weight (est.), dose: 80.0 mg/kg/injection, schedule: Q07DX005 (ip), vehicle: Klucel (hydroxypropylcellulose) (HPC)): 75 % of control and 85 % of control | T/C (endpoint: median tumor weight (est.), dose: 160.0 mg/kg/injection, schedule: Q07DX005 (ip), vehicle: Klucel (hydroxypropylcellulose) (HPC)): 101 % of control

CC[C@H](CC[C@@H](C)C1CC[C@H]2[C@@H]3CC=C4C[C@@H](OP(=O)(N5CC5)N5CC5)CC[C@]4(C)[C@H]3CC[C@]12C)C(C)C (some centres not stated)
T/C (endpoint: median tumor weight (est.), dose: 25.0 mg/kg/injection, schedule: Q07DX005 (ip), vehicle: saline with Tween-80): 77 % of control | T/C (endpoint: median tumor weight (est.), dose: 50.0 mg/kg/injection, schedule: Q07DX005 (ip), vehicle: saline with Tween-80): 56 % of control and 75 % of control | T/C (endpoint: median tumor weight (est.), dose: 200.0 mg/kg/injection, schedule: Q07DX005 (ip), vehicle: saline with Tween-80): 72 % of control and 75 % of control | T/C [9]: 82 % of control | T/C [11]: 41 % of control and 44 % of control | T/C (endpoint: median tumor weight change, dose: 2000.0 mg/kg/injection, schedule: Q01DX001 (ip), vehicle: saline with Tween-80): 9 % of control and 14 % of control

COc1cc2c[n+](C)c3c4cc5c(cc4ccc3c2cc1OC)OCO5
T/C (endpoint: median tumor weight (est.), dose: 10.0 mg/kg/injection, schedule: Q07DX005 (ip), vehicle: saline with Tween-80): 78 % of control | T/C (endpoint: median tumor weight (est.), dose: 40.0 mg/kg/injection, schedule: Q07DX005 (ip), vehicle: saline with Tween-80): 31 % of control | T/C (endpoint: median tumor weight (est.), dose: 80.0 mg/kg/injection, schedule: Q07DX005 (ip), vehicle: saline with Tween-80): 4 % of control

OCCN1CCN(CCCN2c3ccccc3Sc3ccc(C(F)(F)F)cc32)CC1
T/C (endpoint: median tumor weight (est.), dose: 3.12 mg/kg/injection, schedule: Q07DX005 (ip), vehicle: saline): 85 % of control and 109 % of control | T/C (endpoint: median tumor weight (est.), dose: 6.25 mg/kg/injection, schedule: Q07DX005 (ip), vehicle: saline): 107 % of control and 122 % of control | T/C [7]: 80 % of control and 83 % of control | T/C [2]: 47 % of control and 48 % of control

CCCC(=O)Nc1ncnc2c1ncn2C1OC2COP(=O)(O)OC2C1OC(=O)CCC (configuration not stated)
T/C (endpoint: mean tumor weight, dose: 50.0 mg/kg/injection, schedule: Q01DX009 (ip), vehicle: saline): 100 % of control | T/C (endpoint: mean tumor weight, dose: 100.0 mg/kg/injection, schedule: Q07DX007 (ip), vehicle: saline): 117 % of control | T/C (endpoint: mean tumor weight, dose: 200.0 mg/kg/injection, schedule: Q01DX009 (ip), vehicle: saline): 111 % of control | T/C (endpoint: mean tumor weight, dose: 200.0 mg/kg/injection, schedule: Q07DX007 (ip), vehicle: saline): 78 % of control | T/C (endpoint: mean tumor weight, dose: 400.0 mg/kg/injection, schedule: Q01DX009 (ip), vehicle: saline): 55 % of control | T/C (endpoint: mean tumor weight, dose: 400.0 mg/kg/injection, schedule: Q07DX007 (ip), vehicle: saline): 43 % of control | T/C [1]: 75 % of control | T/C [2]: 114 % of control | T/C [3]: 122 % of control | T/C [4]: 77 % of control | T/C [5]: 83 % of control | T/C [6]: 72 % of control

COc1cc(NCc2ccc3nc(N)nc(N)c3c2C)cc(OC)c1OC
T/C (endpoint: median tumor weight (est.), dose: 1.88 mg/kg/injection, schedule: Q07DX005 (ip), vehicle: sodium bicarbonate): 82 % of control | T/C (endpoint: median tumor weight (est.), dose: 3.75 mg/kg/injection, schedule: Q07DX005 (ip), vehicle: sodium bicarbonate): 63 % of control and 82 % of control | T/C (endpoint: median tumor weight (est.), dose: 7.5 mg/kg/injection, schedule: Q07DX005 (ip), vehicle: sodium bicarbonate): 114 % of control | T/C (endpoint: median tumor weight (est.), dose: 35.0 mg/kg/injection, schedule: Q04DX007 (ip), vehicle: water): 100 % of control | T/C (endpoint: median tumor weight (est.), dose: 35.0 mg/kg/injection, schedule: Q07DX005 (ip), vehicle: water): 87 % of control | T/C (endpoint: median tumor weight (est.), dose: 41.5 mg/kg/injection, schedule: Q04DX007 (ip), vehicle: water): 59 % of control | T/C (endpoint: median tumor weight (est.), dose: 44.0 mg/kg/injection, schedule: Q07DX005 (ip), vehicle: water): 44 % of control | T/C (endpoint: median tumor weight (est.), dose: 46.0 mg/kg/injection, schedule: Q07DX005 (ip), vehicle: water): 26 % of control | T/C (endpoint: median tumor weight (est.), dose: 47.4 mg/kg/injection, schedule: Q04DX007 (ip), vehicle: water): 29 % of control | T/C (endpoint: median tumor weight (est.), dose: 53.0 mg/kg/injection, schedule: Q04DX007 (ip), vehicle: water): 66 % of control | T/C (endpoint: median tumor weight (est.), dose: 53.0 mg/kg/injection, schedule: Q07DX005 (ip), vehicle: saline): 5 % of control | T/C (endpoint: median tumor weight (est.), dose: 53.0 mg/kg/injection, schedule: Q07DX005 (ip), vehicle: suspension in saline): 67 % of control | T/C (endpoint: median tumor weight (est.), dose: 62.2 mg/kg/injection, schedule: Q04DX007 (ip), vehicle: water): 29 % of control | T/C (endpoint: median tumor weight (est.), dose: 66.0 mg/kg/injection, schedule: Q07DX005 (ip), vehicle: water): 111 % of control | T/C (endpoint: median tumor weight (est.), dose: 70.0 mg/kg/injection, schedule: Q07DX005 (ip), vehicle: water): 44 % of control | T/C (endpoint: median tumor weight (est.), dose: 71.1 mg/kg/injection, schedule: Q04DX007 (ip), vehicle: water): 45 % of control | T/C (endpoint: median tumor weight (est.), dose: 80.0 mg/kg/injection, schedule: Q04DX007 (ip), vehicle: water): 121 % of control | T/C (endpoint: median tumor weight (est.), dose: 80.0 mg/kg/injection, schedule: Q07DX005 (ip), vehicle: suspension in saline): 23 % of control | T/C (endpoint: median tumor weight (est.), dose: 99.0 mg/kg/injection, schedule: Q07DX005 (ip), vehicle: water): 24 % of control | T/C (endpoint: median tumor weight (est.), dose: 105.0 mg/kg/injection, schedule: Q07DX005 (ip), vehicle: water): 41 % of control | T/C (endpoint: median tumor weight (est.), dose: 120.0 mg/kg/injection, schedule: Q04DX007 (ip), vehicle: water): 8 % of control | T/C (endpoint: median tumor weight (est.), dose: 120.0 mg/kg/injection, schedule: Q07DX005 (ip), vehicle: sodium bicarbonate): 37 % of control

O=C(O)C1CSCN1 (configuration not stated)
T/C (endpoint: median tumor weight change, dose: 12.5 mg/kg/injection, schedule: Q01DX001 (ip), vehicle: water): 79 % of control | T/C (endpoint: median tumor weight change, dose: 25.0 mg/kg/injection, schedule: Q01DX001 (ip), vehicle: water): 111 % of control | T/C (endpoint: median tumor weight change, dose: 50.0 mg/kg/injection, schedule: Q01DX001 (ip), vehicle: water): 173 % of control | T/C (endpoint: median tumor weight change, dose: 100.0 mg/kg/injection, schedule: Q01DX001 (ip), vehicle: water): 90 % of control | T/C (endpoint: median tumor weight change, dose: 200.0 mg/kg/injection, schedule: Q01DX001 (ip), vehicle: water): 59 % of control

Nc1nc(N)c2cc(S(=O)(=O)c3ccccc3)ccc2n1
T/C [8]: 102 % of control | T/C [9]: 109 % of control | T/C [10]: 67 % of control | T/C [12]: 42 % of control | T/C [11]: 40 % of control

Cc1c2ccc3ccccc3c2c[n+]2ccccc12
T/C (endpoint: median tumor weight (est.), dose: 2.5 mg/kg/injection, schedule: Q07DX005 (ip), vehicle: Klucel (hydroxypropylcellulose) (HPC)): 84 % of control | T/C (endpoint: median tumor weight (est.), dose: 5.0 mg/kg/injection, schedule: Q07DX005 (ip), vehicle: Klucel (hydroxypropylcellulose) (HPC)): 86 % of control | T/C [13]: 83 % of control | T/C [14]: 57 % of control
